These results are taken from ChEMBL document CHEMBL1201862, “PubChem BioAssay data set” (2004).

Test systems include UO-31; 786-0; SW-620; U-251; SF-268; UACC-257; Malme-3M; LOX IMVI; TK-10; RPMI-8226; KM12; SF-539; SNB-75; MOLT-4; SK-MEL-2.
Assay in all cases: NCI anticancer screen, dose series, 48 h

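Results reflect a 48-hour exposure of cells in 96-well plates to compound at five concentrations. Here, GI50 denotes the concentration required for 50% inhibition of growth.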 The source made the active and inactive calls. No stated cut-off is given here; in the data, active = GI50 up to about 1.1 µM and inactive = higher.

With `O=C(COc1ccc(/C=C/C(=O)c2ccc(Cl)cc2)cc1)Nc1c(Cl)cccc1Cl`, the GI50 in the experiment with UO-31 was > 100 µM (inactive); in the experiment with 786-0 it was > 100 µM (inactive); in the experiment on SW-620, > 100 µM (inactive); in the experiment on U-251 it was 68.2 µM (inactive); with SF-268, > 100 µM (inactive); with UACC-257, 79.8 µM (inactive). Besides, the GI50 in the experiment on Malme-3M was > 100 µM (inactive); in the experiment with LOX IMVI, 56.1 µM (inactive); in the experiment on TK-10 it was > 100 µM (inactive); with RPMI-8226, 30.2 µM (inactive); with KM12, 67.5 µM (inactive); with SF-539, 80.7 µM (inactive). Further, the GI50 is 56.4 µM (inactive) in the experiment with SNB-75 and 10.7 µM (inactive) in the experiment with MOLT-4.

In the case of `COc1cc(CC(=O)c2cc3c(cc2-c2ccccc2)OCO3)cc(OC)c1OC`, the GI50 in the experiment on UO-31 was 19.5 µM (inactive); with 786-0, > 100 µM (inactive); in the experiment with SW-620, 43.4 µM (inactive); with U-251 it was 71.6 µM (inactive); with SF-268 it was 75.7 µM (inactive); with SK-MEL-2, 44.2 µM (inactive). Further, the GI50 in the experiment on UACC-257 is 23.4 µM (inactive); in the experiment with Malme-3M, 16.9 µM (inactive); in the experiment on LOX IMVI, 0.253 µM (active); in the experiment with TK-10, 32.9 µM (inactive); in the experiment on KM12, > 100 µM (inactive); in the experiment with SF-539, 17.5 µM (inactive). Besides, the GI50 is 1.18 µM (inactive) in the experiment on SNB-75 and 17.7 µM (inactive) in the experiment on MOLT-4.

On to `CC1=C(C)C(=O)c2c(cc3c4ccccc4ccn23)C1=O`, for which the GI50 in the experiment with UO-31, in the experiment with 786-0, in the experiment with SW-620, in the experiment with U-251, with SK-MEL-2 and with UACC-257 was > 100 µM (inactive) in each case. The GI50 with Malme-3M, in the experiment with LOX IMVI, in the experiment on TK-10, in the experiment with RPMI-8226, in the experiment on KM12 and in the experiment with SF-539 was > 100 µM (inactive) in each case. Besides, the GI50 with SNB-75 and in the experiment on MOLT-4 was > 100 µM (inactive) each time.

As to `C/C=C1\Oc2ccc(OC)cc2S1(=O)=O`, the GI50 in the experiment on UO-31, in the experiment on 786-0, in the experiment with SW-620, in the experiment on U-251, in the experiment with SF-268 and with SK-MEL-2 was > 100 µM (inactive) in each case. Besides, the GI50 with UACC-257, in the experiment on Malme-3M, in the experiment with LOX IMVI, in the experiment on TK-10, in the experiment with RPMI-8226 and in the experiment with KM12 was > 100 µM (inactive) in each case. Also, the GI50 in the experiment with SNB-75 and with MOLT-4 was > 100 µM (inactive) each time.

For `CCOC(=O)c1cc2c3c(c(O)c(OC)c2s1)N(C(=O)c1cc2c4c(c(O)c(OC)c2s1)N(C(C)=O)CC4)CC3`, the GI50 with UO-31 is 64.4 µM (inactive); with 786-0, 36.6 µM (inactive); with SW-620 it was > 100 µM (inactive); in the experiment with U-251, 63.8 µM (inactive); in the experiment on SF-268 it was > 100 µM (inactive); in the experiment on UACC-257, > 100 µM (inactive). The GI50 in the experiment with Malme-3M is 77.8 µM (inactive); with LOX IMVI, > 100 µM (inactive); in the experiment on TK-10 it was > 100 µM (inactive); with RPMI-8226, > 100 µM (inactive); in the experiment on KM12, > 100 µM (inactive); with SF-539, 38.5 µM (inactive). Besides, in the experiment on SNB-75, the GI50 is 23.4 µM (inactive).

For the molecule `CC(C)CC1CC2C(=O)N(c3ccccc3)C(=O)C2c2[nH]c3ccccc3c21` (centres undefined), the GI50 is 26.4 µM (inactive) with UO-31; 66.5 µM (inactive) in the experiment on 786-0; 23.8 µM (inactive) with SW-620; 25 µM (inactive) in the experiment on U-251; > 56.2 µM (inactive) in the experiment with SF-268; 25.6 µM (inactive) with SK-MEL-2. Also, the GI50 is 26.5 µM (inactive) in the experiment with UACC-257; 9.73 µM (inactive) in the experiment with Malme-3M; 16.8 µM (inactive) in the experiment on LOX IMVI; 29.2 µM (inactive) with RPMI-8226; 52.7 µM (inactive) with KM12; 23.2 µM (inactive) in the experiment on SF-539. The GI50 with SNB-75 is 13.1 µM (inactive); with MOLT-4, 17.9 µM (inactive).

`O=C1C2=C(c3ccccc31)C(c1ccccc1Cl)N1C(=O)CCSC1=N2` (centres undefined): the GI50 in the experiment on UO-31 is 58.1 µM (inactive); in the experiment with 786-0, > 100 µM (inactive); in the experiment on SW-620, > 100 µM (inactive); in the experiment on U-251, > 100 µM (inactive); in the experiment with SF-268, > 100 µM (inactive); with SK-MEL-2 it was > 100 µM (inactive). Moreover, the GI50 with UACC-257 is > 100 µM (inactive); in the experiment with Malme-3M it was > 100 µM (inactive); with TK-10, > 100 µM (inactive); in the experiment with RPMI-8226, 81.5 µM (inactive); in the experiment with KM12, > 100 µM (inactive); with SF-539, > 100 µM (inactive). The GI50 in the experiment on SNB-75 was 55.2 µM (inactive); in the experiment with MOLT-4 it was 84.7 µM (inactive).

Take `C=CCSc1ncnc2c1ncn2C1OC(CO)C(O)C1O` (centres undefined): the GI50 was 42.1 µM (inactive) with UO-31; 79.4 µM (inactive) in the experiment with 786-0; 14.4 µM (inactive) in the experiment with SW-620; > 100 µM (inactive) in the experiment on U-251; 34.7 µM (inactive) in the experiment with SF-268; 58.7 µM (inactive) with SK-MEL-2. The GI50 was > 100 µM (inactive) in the experiment with UACC-257; > 100 µM (inactive) in the experiment on Malme-3M; 4.72 µM (inactive) in the experiment with LOX IMVI; 68.7 µM (inactive) with TK-10; 32.5 µM (inactive) in the experiment on RPMI-8226; > 100 µM (inactive) in the experiment with KM12. Besides, the GI50 is 37.5 µM (inactive) in the experiment on SF-539, 65.2 µM (inactive) with SNB-75 and 3.58 µM (inactive) with MOLT-4.

With `Cc1cc2c(=O)cc(-c3ccc(O)cc3)oc2c(C(=O)O)c1C`, the GI50 with UO-31, in the experiment with 786-0, in the experiment with SW-620, with U-251, in the experiment with SK-MEL-2 and with UACC-257 was > 100 µM (inactive) in each case. Besides, the GI50 in the experiment with Malme-3M, in the experiment with LOX IMVI, with TK-10, in the experiment on RPMI-8226, with KM12 and in the experiment with SF-539 was > 100 µM (inactive) throughout. Further, the GI50 with SNB-75 and with MOLT-4 was > 100 µM (inactive) throughout.

Consider `Nc1nc2c3nc(Nc4ccccc4)sc3nc(=S)n2c2sc(Nc3ccccc3)nc12`, for which the GI50 with UO-31 is > 100 µM (inactive); in the experiment with 786-0, 73.8 µM (inactive); in the experiment with SW-620, > 100 µM (inactive); in the experiment on U-251, 15.5 µM (inactive); with SF-268, 12.1 µM (inactive); in the experiment on UACC-257, > 100 µM (inactive). The GI50 with Malme-3M is 47.4 µM (inactive); with SF-539, > 100 µM (inactive); in the experiment on SNB-75, 50.8 µM (inactive).

On to `Cc1ccc(-c2cc(-c3ccco3)nc(N)n2)o1`, for which the GI50 with UO-31 is 58.2 µM (inactive); in the experiment on 786-0, > 100 µM (inactive); with SW-620, > 100 µM (inactive); in the experiment with SF-268, > 100 µM (inactive); in the experiment on SK-MEL-2 it was > 100 µM (inactive); in the experiment with Malme-3M, > 100 µM (inactive). In addition, the GI50 in the experiment on LOX IMVI is > 100 µM (inactive); in the experiment on TK-10, > 100 µM (inactive); in the experiment with RPMI-8226, > 100 µM (inactive); in the experiment with KM12, > 100 µM (inactive); in the experiment on SF-539, > 100 µM (inactive); in the experiment on SNB-75, 37.2 µM (inactive). For the same molecule, the GI50 with MOLT-4 was > 100 µM (inactive).

For the molecule `[O-][S+](Cc1ccccc1)c1nc2ccccc2nc1-c1cccs1` (centres undefined), the GI50 in the experiment with UO-31 is 24.8 µM (inactive); in the experiment with 786-0, 11.3 µM (inactive); with U-251, 18.4 µM (inactive); with SF-268, 17.8 µM (inactive); with SK-MEL-2, 9.66 µM (inactive); in the experiment on UACC-257, 13.2 µM (inactive). In addition, the GI50 with Malme-3M is 6.18 µM (inactive); with TK-10, 14.3 µM (inactive); in the experiment on RPMI-8226 it was 17.9 µM (inactive); with KM12, 16 µM (inactive); in the experiment on SF-539, 16.4 µM (inactive); with SNB-75, 17.6 µM (inactive). In the experiment with MOLT-4, the GI50 is 3.53 µM (inactive).

With `CC(C)(C)C1=CC(=C(P(=O)(O)O)P(=O)(O)O)C=C(C(C)(C)C)C1=O`, the GI50 in the experiment on UO-31, with 786-0, in the experiment with SW-620, with SF-268, with SK-MEL-2 and in the experiment on UACC-257 was > 50 µM (inactive) each time. Further, the GI50 with Malme-3M, with LOX IMVI, in the experiment on TK-10, in the experiment on RPMI-8226, with KM12 and with SF-539 was > 50 µM (inactive) each time. Besides, the GI50 in the experiment on SNB-75 and with MOLT-4 was > 50 µM (inactive) in each case.

Consider `CC/C(=C(\c1ccccc1)c1ccc(OCC[N+](C)(C)C)cc1)c1ccccc1` [TAMOXIFEN METHYL IODIDE], for which the GI50 in the experiment on UO-31 is 21.1 µM (inactive); with 786-0, 13.7 µM (inactive); in the experiment on SW-620, 16 µM (inactive); in the experiment on U-251, 13.4 µM (inactive); in the experiment with SF-268, 15.3 µM (inactive); in the experiment with SK-MEL-2, 13.8 µM (inactive). The GI50 is 6.75 µM (inactive) in the experiment with UACC-257; 12.8 µM (inactive) in the experiment with Malme-3M; 11.3 µM (inactive) in the experiment on LOX IMVI; 9.29 µM (inactive) with RPMI-8226; 13.3 µM (inactive) with KM12; 21.6 µM (inactive) in the experiment with SF-539. In addition, the GI50 was 8.85 µM (inactive) with SNB-75 and 17.7 µM (inactive) in the experiment on MOLT-4.
